# Values of other authors in patent EP1677774B1, “CITICOLINE-BASED COMPOSITION IN COMBINATION WITH VITAMINS FOR THE PREVENTION AND TREATMENT OF EYE PATHOLOGIES” (Bausch & Lomb IOM S.p.A., priority 2003, dated 2005).
# Assays:
# glaucomatous patients = settings: intramuscular administration
structure (smiles),measurement,setting,value
"C[N+](C)(C)CCOP(=O)(O)OP(=O)([O-])OC[C@H]1O[C@@H](n2ccc(N)nc2=O)[C@H](O)[C@@H]1O [CDP-choline, cytidine-5'-diphosphocholine]",metabolic fate after administration,intravenous or oral administration,immediately hydrolysed and converted into the two circulating metabolites cytidine and choline
same,calculated bioavailability for oral administration,oral compared with intravenous administration,virtually the same as the one calculated for intravenous administration
same,effect on the optic nerve (perimetric measures),glaucomatous patients; long-term clinical studies,positive effect on the damaged optic nerve
same,retinal and supraretinal signal conduction,glaucomatous patients; short-term clinical study,functional improvement
